From patent US12134785B2, “Differentiation of pluripotent stem cells to form renal organoids” (The University of Queensland, priority 2014, dated 2024)

Legend:
[1] = system: human iPSC line CRL1502 (clone#C32); experiment: RA signaling control of A-P fate patterning of the IM (RA or AGN193109 with FGF9, monolayer differentiation, immunofluorescence); format: cell-based; conditions: day 18
Description: (§1) All experiments presented used the previously described wildtype human iPSC line CRL1502 (clone#C32) generated using episomal reprogramming^28. Undifferentiated human iPSCs were maintained on the mouse embryonic fibroblasts (MEFs) (Millipore) as a feeder layer with human ES cell (hES) medium as described previously^1. Cells were authenticated and tested for the mycoplasma infection^28. Human iPSCs were plated on a Matrigel-coated (Millipore) culture dish and cultured in MEF-conditioned hES medium (MEF-CM) until reaching to 60-100% confluent. Then, cells were again plated on a Matrigel-coated at 5,000 cells/cm^2 in MEF-CM. Next day, cells reached to 40-50% of confluent, cells were treated with 8 μM of CHIR99021 in APEL basal medium ([…] Technologies) supplemented with Antibiotic-Antimycotic (Life Technologies) for 2-5 days, followed by FGF9 (200 ng mL^−1) and Heparin (1 μg mL^−1) for another […], with changing medium every second day. At day 7, cells were collected and dissociated into single cells using Trypsin or TrypLE select (Life Technologies). Cells (0.5×10^6) were spun down at ×400 g for 2 min to form a pellet and then transferred onto a Transwell 0.4 μm pore polyester membrane (#CLS3450 Corning). Pellets were treated with 5 μM of CHIR99021 in APEL for 1 h, and then cultured with FGF9 (200 ng mL^−1) and Heparin (1 μg mL^−1) for 5 days, followed by another 6-13 days in APEL basal medium, with changing medium three times a week. Culture medium should not exceed above a membrane. For the differentiation in monolayer cultures, cells post CHIR99021 induction were treated by FGF9 (200 ng mL^−1) and Heparin (1 μg mL^−1) for 10 days, followed by APEL basal medium for another 6 days. In some experiments, RA (0.1 μM) or AGN193109 (5 μM) were added to FGF9 medium. A step-by step protocol describing kidney organoid generation was provided in Example 1.
For monolayer cells, antibody staining was performed as described previously^1. For the kidney organoid, organoids were fixed with 2% paraformaldehyde in PBS for 20 min at 4° C. followed by 3 times wash with PBS. […]

IM cells = experiment: Preliminary data on differentiation of IM cells at different RA / AGN193109 concentrations; format: cell-based; conditions: higher concentrations of AGN193109
kidney organoids = experiment: Regulation of nephrogenesis in the kidney organoid (CHIR99021 pulse, FGF9); format: cell-based, human
Description: as §1, with “Pellets were treated with 5 μM of CHIR99021 in APEL for 1 h, and then cultured with FGF9 (200 ng mL^−1) and Heparin (1 μg mL^−1) for 5 days, followed by another 6-13 days in APEL basal medium, with changing medium three times a week.” left out

[2] = system: human iPSC line CRL1502 (clone#C32); experiment: Duration of initial Wnt signaling (CHIR99021) prior to FGF9: AI/PI markers by qPCR and immunofluorescence; format: cell-based
Description: as §1
For monolayer cells, antibody staining was performed as described previously^1. For the kidney organoid, organoids were fixed with 2% paraformaldehyde in PBS for 20 min at 4° C. followed by 3 times wash with PBS. Then organoids were blocked with 10% donkey serum, 0.3% Triton X/PBS for 2-3 h at room temperature and incubated with primary antibodies overnight at 4° C. After 5 times washing with 0.1% Triton X/PBS. secondary antibodies were incubated for 4 h at room temperature. The following antibodies and dilutions were used: rabbit anti-PAX2 (1:300, #71-6,000, Zymed Laboratories), goat anti-SIX1 (1:300, #sc-9709, Santa Cruz Biotechnology), rabbit anti-SIX2 (1:300, #11562-1-AP, Proteintech), mouse anti-ECAD (1:300, #610181. BD Biosciences), rabbit anti-WT1 (1:100, #sc-192, Santa Cruz Biotechnology), mouse anti-HOXD11 (1:300, #SAB1403944, Sigma-Aldrich), goat anti-GATA3 (1:300, AF2605, R&D Systems). rabbit anti-JAG1 (1:300, #ab7771, Abcam), goat anti-Cubilin (1:150, #sc-20607. Santa Cruz Biotechnology), sheep anti-NPHS1 (1:300, AF4269, R&D Systems), LTL-biotin-conjugated (1:300, B-1325, Vector Laboratories), DBA-biotin-conjugated (1:300, B-1035, Vector Laboratories), mouse anti-KRT8 (1:300, #TROMA, DSHB), mouse anti-CD31 (1:300, #555444, BD Pharmingen), rabbit anti-KDR (1:300, #2479, Cell Signaling Technology), goat anti-SOX17 (1:300, #AF1924, R&D Systems), rabbit anti-NG2 (1:300, #AB5320, Merck Millipore), rabbit anti-SMA (1:300, #ab15267. Abcam), mouse anti-PDGFRA (1:200, #556001. BD Pharmingen), rabbit anti-Laminin (1:300, #L9393, Sigma-Aldrich), rabbit anti-UMOD (1:300, #BT-590, Biomedical Technologies), mouse anti-MEIS1 (1:300, #ATM39795, activemotif), goat anti-FOXD1 (1:200, #sc-47585, Santa Cruz Biotechnology) and rabbit anti-cleaved-CASP3 (1:300, #9661, Cell Signaling Technology). Images were taken using a Nikon Ti-U microscope or a Zeiss LSM 780 confocal microscope. All immunofluorescence analyses were successfully repeated more than three times and representative images are shown. […]

[3] = longer duration of CHIR99021, day 7
[4] = shorter duration of CHIR99021, day 7

Compound: Cc1ccc(C2=CCC(C)(C)c3ccc(C#Cc4ccc(C(=O)O)cc4)cc32)cc1 [AGN193109]
- AI specification of early migrating cells ([1]; 3 days CHIR99021 followed by FGF9 + AGN): inhibited
- induction of the MM lineage ([1]; AGN193109 (5 μM) with FGF9 after CHIR99021, monolayer): enhanced
- UE induction (GATA3+PAX2+ECAD+) ([1]; RA (0.1 μM) or AGN193109 (5 μM) with FGF9 after CHIR99021, monolayer): inhibited
- proportion of metanephric mesenchyme cells (IM cells): relative increase

Compound: Cc1c[nH]c(-c2cnc(NCCNc3ccc(C#N)cn3)nc2-c2ccc(Cl)cc2Cl)n1 [CHIR99021]
- nephrogenesis in organoids (kidney organoids; 5 μM CHIR99021 for 1 h immediately post aggregation vs no pulse): promoted nephrogenesis
- formation of aggregates (kidney organoids; 45 minute pulse of high CHIR (5 μM) immediately upon reaggregation): enhanced
- maximal nephron number per organoid (kidney organoids; pulse of CHIR99021 for one hour after forming a pellet): required
- UE induction (GATA3+PAX2+ECAD+) ([2]; fewer days in CHIR, after 18 days of culture): dominant UE induction
- induction of UE and MM in monolayer culture ([2]; initial 4 days of CHIR99021): induction of both the UE and MM
- expression of the PSM markers TBX6 and T (qPCR) ([2]; longer days in CHIR99021): Prolonged expression
- induction of MM (PAX2+ECAD−) and its derivatives (PAX2+ECAD+) ([2]; longer days in CHIR, after 18 days of culture): preferential induction of MM
- PI markers HOXD11 and EYA1 (qPCR) ([2]; longer days of 8 μM CHIR99021, day 7): increased
- AI (GATA3) by immunofluorescence [2, 3]: less
- PI (HOXD11) by immunofluorescence [2, 3]: more
- AI (GATA3) by immunofluorescence [2, 4]: more
- PI (HOXD11) by immunofluorescence [2, 4]: less
- AI markers LHX1 and GATA3 (qPCR) ([2]; shorter period of 8 μM CHIR99021, day 7): induced
